Measurements as given in patent US6344442B2, “Zona pellucida proteins for contraception” (Schering Aktiengesellschaft, priority 1996, dated 2002).

Experiments:
Assay type in all cases: cell-based
[1] = test system: mouse zona pellucida (bonding of mouse sperm); assay: Zona pellucida bonding test in mice (sperm bonding to isolated zonae); conditions: 20 sperm bonds per zona corresponds to 100%
Method: (§1) To recover sperm, a mouse buck is sacrificed, and the two epididymal appendages are removed and transferred into the prepared small Petri dishes [see above under b)]. The tissue parts are cut in the medium, so that the sperm can escape. The sperm are capacitated for one hour in the incubator. After the capacitation time has been completed, the sperm are diluted 1:5 with BWW/0.3 BSA. For counting in the counting chamber, a 1:1 aliquot is diluted with doubly distilled H2O. The desired sperm concentration is 40,000-80,000/0.1 ml.
(§2) The animals are sacrificed 13 hours after the HCG injection, and the tubes are removed and transferred into the prepared small Petri dishes [see above under a)]. Pending further processing, the small dishes are kept at 37° C. on the warming plate. Under the stereomicroscope, the tubes that are in oil are pulled apart. In this case, the cumulus clouds pour out, which then are transferred into the prepared medium drops (two cumulus clouds per drop).
The sperm and oocytes are obtained as described in in vitro fertilization.
The oocytes that are obtained as under I.2.3. are taken up by a finely drawn Pasteur pipette, whose diameter must be somewhat smaller than the diameter of the oocytes, with a few μl of BWW medium. This process is repeated several times and finally causes the zonae pellucida to burst. The cytoplasmic portion of the ooctyes is released, and the isolated zona pellucida is collected for further tests and covered in 0.1 ml of BWW medium with equilibrated oil and kept at 37° C.
The capacitated mouse sperm (see I.2.2) are preincubated for 15 minutes either with a solvent or the desired substance, and then 0.1 ml drops are added to the isolated zonae pellucidae, in such a way that the incubation volume is a total of 0.2 ml (under oil). About 20 zonae pellucidae are studied per drop. The sperm concentration per drop is between 10,000 and 30,000 per μl. Sperm and zonae are incubated for 45 minutes in an incubator (see Description under I.2). After the incubation period, the number of bonded sperm per zona is evaluated under an inverse microscope. The upper limit of the sperm, which have yet to be counted exactly, is 20 sperm per zona pellucida under control conditions.
10,000 Sperm per 0.01 ml with 20 sperm bonds per zonae corresponds to 100%

[2] = test system: human zona pellucida (bonding of human sperm); assay: Zona pellucida bonding test in humans (hemizona); conditions: 4 hours at 37° C.
Method: For the zona bonding test in humans, the ejaculate of normo-zoospermatocidal donor semen is prepared with use of SpermFertil^(R) glass wool columns (Mello Ltd., FRG). The filtrates were washed and resuspended in HFT-HSA (HFT=human tubal fluid medium according to Quinn et al., supplemented with 10 mg/ml of human serum albumin=HSA).
All human oocytes are obtained from post mortem material. Provision is made at all times to ensure that all legal, ethical and moral guidelines during the entire process are strictly followed.
Unless otherwise indicated, the oocytes are stored in 36.6 mmol of HEPES buffer, pH 7.4, which contains […] MgCl2 and 0.1% PVP at 4° C.
The experiments consist of three incubation drops that contain 10 μl of a standard HTF-HSA medium (see above) and 40 μl of working medium (see below). A specific number of oocytes (for TEM) or hemizonae for the bonding was added to each drop to ensure bonding. For the bonding experiments, a 10 μl sperm drop (50×10^6/ml) was added to each drop, covered with mineral oil, and incubated for 4 hours at 37° C. in 5% CO2. The statistical evaluation was done according to the non-parametric Mann-Whitney two-sample test.
Composition of the working medium: 20 μl of 5 mmol NaH2PO4 (adjusted with phosphoric acid), pH 2.5, plus 20 μl of a specially composed doubly-concentrated HTF-HSA medium, mixed at a ratio of 1:1 (vol/vol).
Composition of the doubly-concentrated HTF-HSA medium: […]

capacitated human sperm = assay: Acrosome reaction in capacitated human sperm
sperm = assay: Sperm movement parameters
[3] = test system: mouse oocytes and sperm (in vitro fertilization); assay: Mouse in vitro fertilization; conditions: 24 hours incubation
Description: I. In Vitro Fertilization
In vitro fertilization represents a test system that makes possible a first review of a contraceptive effect of substances. In this case, the possibility exists of studying whether the contraceptive effect can be attributed primarily to an inhibition of the sperm function(s) or to an inhibiting effect on the oocytes, or to the two above-mentioned effects.
Fertile female mice (CB6F1 strain) about 12 weeks of age; fertile male mice (CB6F1 strain) at least 14 weeks of age.
c) 0.1 ml of BWW/0.3% BSA, corresponding to the concentrations that are to be tested, is mixed with or without substance (control) for the fertilization (prepared after removal of the tubes), covered with equilibrated oil, and kept at 37° C.
10 injection units of PMS/0.1 ml are injected intrapericutaneously into the approximately 12-week-old fertile mice, and 54 hours later, 10 injection units of HCG/0.1 ml are administered.
as §1, §2
0.1 ml of dilute sperma-defined concentration is added to the oocytes that are in the medium drops and is incubated for 24 hours in the incubator at 37° C.
After incubating for 24 hours in the incubator, the following parameters are computed:
The fertilization rate corresponds to the number of divided oocytes per total number of intact oocytes.

Substance: NH2-RYPRQGNVSS-COOH (H-RYPRQGNVSS-OH) [human ZPC (ZP3) peptide, residues 141-150]
- % Inhibition of Sperm Bonding (Mouse) to the Mouse Zona Pellucida ([1]; 0.1 μg/ml peptide): 71%
- % Inhibition of Sperm Bonding (Mouse) to the Mouse Zona Pellucida ([1]; 10 μg/ml peptide): 89%
- % Inhibition of Sperm Bonding (Mouse) to the Mouse Zona Pellucida ([1]; 100 μg/ml peptide): 91%
- % Inhibition of Sperm Bonding (Human) to the Human Zona Pellucida ([2]; 1 μg/ml peptide): 76%
- % Inhibition of Sperm Bonding (Human) to the Human Zona Pellucida ([2]; 10 μg/ml peptide): 77%
- triggering of the acrosome reaction (capacitated human sperm): do not trigger the acrosome reaction
- influence on parameters of the sperm movement (sperm): does not influence any parameters of the sperm movement

Substance: NH2-SRNRRHVTEEADVT-COOH (H-SRNRRHVTEEADVT-OH) [human ZPC (ZP3) peptide, residues 348-361]
- % Inhibition of Sperm Bonding (Mouse) to the Mouse Zona Pellucida ([1]; 0.1 μg/ml peptide): 69%
- % Inhibition of Sperm Bonding (Mouse) to the Mouse Zona Pellucida ([1]; 10 μg/ml peptide): 85%
- % Inhibition of Sperm Bonding (Mouse) to the Mouse Zona Pellucida ([1]; 100 μg/ml peptide): 82%
- % Inhibition of Sperm Bonding (Human) to the Human Zona Pellucida ([2]; 1 μg/ml peptide): 0%
- % Inhibition of Sperm Bonding (Human) to the Human Zona Pellucida ([2]; 10 μg/ml peptide): 0%

Substance: NH2-TPT..PDQNASPY-COOH (H-TPTPDQNASPY-OH) [human ZPC (ZP3) peptide, residues 220-230]
- % Inhibition of Sperm Bonding (Human) to the Human Zona Pellucida ([2]; 1 μg/ml peptide): 0%
- % Inhibition of Sperm Bonding (Human) to the Human Zona Pellucida ([2]; 10 μg/ml peptide): 18%

Substance: Ac-SQFQIHGPRQ-NH2
- % Inhibition of Mouse In Vitro Fertilization ([3]; 0.1 μg/ml peptide): 0%
- % Inhibition of Mouse In Vitro Fertilization ([3]; 1 μg/ml peptide): 63%
- % Inhibition of Mouse In Vitro Fertilization ([3]; 10 μg/ml peptide): 5%

Substance: NH2-TRRCRTASHPVSASE-COOH (H-TRRCRTASHPVSASE-OH) [human ZPC (ZP3) peptide, residues 410-424]
- % Inhibition of Sperm Bonding (Mouse) to the Mouse Zona Pellucida ([1]; 0.1 μg/ml peptide): 86%
- % Inhibition of Sperm Bonding (Mouse) to the Mouse Zona Pellucida ([1]; 10 μg/ml peptide): 87%
- % Inhibition of Sperm Bonding (Human) to the Human Zona Pellucida ([2]; 1 μg/ml peptide): 61%
- % Inhibition of Sperm Bonding (Human) to the Human Zona Pellucida ([2]; 10 μg/ml peptide): 88%

Substance: NH2-SQFQIHGPRQ-COOH (H-SQFQIHGPRQ-OH)
- % Inhibition of Sperm Bonding (Mouse) to the Mouse Zona Pellucida ([1]; 1 μg/ml peptide): 61%
- % Inhibition of Sperm Bonding (Mouse) to the Mouse Zona Pellucida ([1]; 10 μg/ml peptide): 72%
- % Inhibition of Mouse In Vitro Fertilization ([3]; 0.1 μg/ml peptide): 52%
- % Inhibition of Mouse In Vitro Fertilization ([3]; 1 μg/ml peptide): 29%
- % Inhibition of Mouse In Vitro Fertilization ([3]; 10 μg/ml peptide): 1%

Substance: Ac-QRPGHIQFQS-NH2 [Ac-QRPGHIQFQS-NH2 (reverse), reference compound]
- % Inhibition of Sperm Bonding (Mouse) to the Mouse Zona Pellucida ([1]; 1 μg/ml peptide): 0%
- % Inhibition of Sperm Bonding (Mouse) to the Mouse Zona Pellucida ([1]; 10 μg/ml peptide): 0%

Substance: Ac-CGTPSHSRRQPHVMS-NH2 [human ZPC (ZP3) peptide, residues 327-341]
- % Inhibition of Sperm Bonding (Human) to the Human Zona Pellucida ([2]; 1 μg/ml peptide): 45%
- % Inhibition of Sperm Bonding (Human) to the Human Zona Pellucida ([2]; 10 μg/ml peptide): 88%
- triggering of the acrosome reaction (capacitated human sperm): do not trigger the acrosome reaction
